Earlier results on eight molecules are cited in patent US4923986A, “Derivatives of physiologically active substance K-252” (Kyowa Hakko Kogyo Co., Ltd., priority 1988, dated 1990).

The structures appear in SMILES notation.

The conditions of series [1]: literature, in words; cited from earlier work.
The subject of series [2] is histamine release. The following applies: literature, in words; cited from earlier work.
For series [3] the following is noted: literature, in words; cited from earlier work. The source holds these as a separate data set.
In series [4] the test system is C-kinase. The following applies: literature, in words; cited from earlier work.

Consider `COC(=O)[C@@]1(O)C[C@H]2O[C@]1(C)n1c3ccccc3c3c4c(c5c6ccccc6n2c5c31)C(=O)NC4` (relative stereo) [Compound K-252], for which, in series [1], the antibacterial activity result is “antibacterial substances”. Also, the “activity to inhibit histamine release” value in series [2] is “activity to inhibit histamine release”. Moreover, the anti-allergic activity entry in series [3] is “anti-allergic activity”.

On to `C[C@]12O[C@H](C[C@]1(O)C(=O)O)n1c3ccccc3c3c4c(c5c6ccccc6n2c5c31)CNC4=O` (relative stereo) [KT-5556], for which the antibacterial activity result in series [1] was “antibacterial substances”. In addition, the “activity to inhibit histamine release” value in series [2] is on record as “activity to inhibit histamine release”.

Consider `NCCCCCCNS(=O)(=O)c1cccc2c(Cl)cccc12` [Compound W-7, N-(6-aminohexy)-5-chloro-1-naphthalenesulfonamide], for which, in series [4], the C-kinase inhibitory activity entry is recorded as “low”.

Regarding `CN[C@@H]1C[C@H]2O[C@@](C)([C@@H]1OC)n1c3ccccc3c3c4c(c5c6ccccc6n2c5c31)C(=O)NC4` [Staurosporine], in series [1], the antibacterial activity entry is on record as “antibacterial activity”.

Turning to `CN(C)CCCN1c2ccccc2Sc2ccc(Cl)cc21` [chlorpromazine], the C-kinase inhibitory activity entry in series [4] is given as “low”.

For `ClCCN(Cc1ccccc1)Cc1ccccc1` [dibenamine], the C-kinase inhibitory activity result in series [4] is listed as “low”.

Turning to `CCCCNc1ccc(C(=O)OCCN(C)C)cc1` [tetracaine], the C-kinase inhibitory activity result in series [4] is on record as “low”.

On to `CN1CCN(CCCN2c3ccccc3Sc3ccc(C(F)(F)F)cc32)CC1` [trifluoperazine], for which the C-kinase inhibitory activity entry in series [4] was “low”.
